Data from patent publication US10150772B2, “Crystalline forms of PARP inhibitors” (priority 2014, dated 2018).
Where a name gives a salt, the structure may show the parent alone.

Experiments:
[1] = type: physicochemical
Procedure: Identity, Assay, and Purity by HPLC
Testing was performed on a calibrated and validated Agilent 1200 Rapid Resolution High Performance Liquid Chromatography (HPLC) system designated LC-0430-AD or LC-418-1D. The system comprises a binary SL pump, degasser, high performance autosampler SL with a fraction collector, thermostated column compartment with a 2 valve column switcher, and a DAD SL detector. All standard solutions and samples were prepared in Class A glass volumetric flasks and were placed in autosampler vials. Standard weighings were done using a calibrated Mettler analytical balance. The sample preparations were centrifuged using an Eppendorf microcentrifuge. The primary chromatography data was acquired and integrated using Empower 2 software. Microsoft Office Excel 2003 was used for the calculation of results.
Solid State Stability of Salts at 40° C. and 75% Humidity:
Samples of the form to be studied (15-20 mg) were weighed into standard 1.5 mL HPLC vials (32×11.6 mm) and stored uncapped for 0, 7, 14 and 28 days in a 40° C. and 75% RH stability chamber. Samples were removed on the indicated day and capped. Measurements of XRPD, DSC, TGA and HPLC Identity by Purity and Assay measurements were completed on each time point sample.

[2] = Dynamic vapor sorption (DVS), water sorption; type: physicochemical
Procedure: Dynamic Vapor Sorption (DVS):
DVS experiments have been carried out using the DVS-HT instrument (Surface Measurement Systems, London, UK). This instrument measures the uptake and loss of vapor gravimetrically using a recording ultra-microbalance with a mass resolution of ±0.1 μg. The vapor partial pressure (±1.0%) around the sample is controlled by mixing saturated and dry carrier gas streams using electronic mass flow controllers. The desired temperature is maintained at ±0.1° C. The samples (1-10 mg) were placed into the DVS-HT and DVS-1 instruments at the desired temperature.
The sample was loaded and unloaded at 40% RH and 25° C. (typical room conditions). A moisture sorption isotherm was performed as outlined below (2 scans giving 1 complete cycle). The software uses a least squares minimization procedure together with a model of the mass relaxation, to predict an asymptotic value. The measured mass equilibration value must be within 2% of that predicted by the software before proceeding to the next % RH value. The minimum equilibration time was set to 1 hour and the maximum to 4 hours.

[3] = Estimation of water solubility; type: physicochemical
Procedure: Estimation of Water Solubility: Ten mg portions of the salt forms to be studied were weighed into a standard 1.5 mL HPLC vial (32×11.6 mm). […] An estimation of solubility was based on the volume of water necessary to dissolve the known weight of sample.

[4] = initial, before 40° C. and 75% RH stability testing

| SMILES | Stability to the test conditions (in words) ([1]; 40° C. and 75% RH, 28 day test period) | DVS sorption behaviour (in words) ([2]; DVS, 25° C.) | Total uptake (moisture) ([2]; DVS, 25° C., entire RH range) | Water absorption, first cycle ([2]; DVS, RH range of 40-75%) | Est. Water Solubility [3] | COMPOUND B After 40/75 ([1]; after 40° C. and 75% RH stability testing) | COMPOUND A Initial [1, 4] | COMPOUND B Initial [1, 4] | TGA ([1]; initial, comparison of salts) | DVS ([2]; water sorption reversible or irreversible) |
| --- | --- | --- | --- | --- | --- | --- | --- | --- | --- | --- |
| COc1cccc2[nH]c3c4c(c5c(c3c12)C(=O)N(CN1CCN(C)CC1)C5=O)CCC4 [L-Pyroglutamate Salt, Form A1] | stable over a 28 day test period, except for a slow increase in Compound B content | massive uptake in moisture | ~27% | ~2% |  |  |  |  |  |  |
| COc1cccc2[nH]c3c4c(c5c(c3c12)C(=O)N(CN1CCN(C)CC1)C5=O)CCC4.O=C(O)C[C@H](O)C(=O)O [L-malate (2 Eq.)] |  |  |  |  | >100 mg/mL | 1.2% | 71.3% | 0.2% | 0.1% | Irreversible |
